# In paper PMC7005452 (Heliyon, 2020):
# Where two headings read alike, the source gives them in different places.
# Columns and labels:
# [1] = WST-1 cytotoxicity / cell viability assay; assay type: cell-based, human; conditions: human, HEK293 cells, log-probit on percentage mortality, read-out: LC50
# Description: (§1) Human embryonic kidney 293 (HEK293) and CACO2 cells were purchased from ATCC. Cells were cultured in DMEM (Corning, USA) supplemented with 10% FBS (Gibco, USA) and 1% penicillin/streptomycin (Gibco, USA). SH-SY5Y cells were gifted by Dr. Dong-Hyung Cho's laboratory in the Dept. of Life Science at Kyungpook National University and were grown in DMEM with high glucose (Gibco, USA). Cells were grown to 80–90% confluence in a 10 cm plate before splitting into a 96 well plate. […] After 48 h incubation, 10% (v/v) of water soluble tetrazolium salt (WST, DoGen Inc., South Korea) was added to each well, following the manufacturer's instruction. Orange color development for enzyme-substrate reaction was monitored, using spectrophotometry at 450 nm (Tecan Sunrise, Switzerland).
# (§2) One-way ANOVA, followed by a post-hoc Tukey's HSD test, was used to determine differences in toxicity, and repellency percentages (P < 0.05) (SAS for Window release 6, SAS Institute). All percentage mortality data were corrected using Abbott's formula ([Abbott, 1987]). […] Adult repellency percentage was calculated using the formula PR (%) = [(C-T)/(C + T)] × 100 ([Liu et al., 2013]). All analyses were performed in SAS version 9.4. All the graphs were drawn with SigmaPlot 12.5 (Systat Software, Inc., San Jose, CA, USA).
# (§3) As the safety of agricultural products and foods became a major concern and issue in the modern society, validating the effects of pesticides on human physiology and setting the safety limits of their use is important ([Fan and Jackson, 1989]; [Kim et al., 2017]). […] WST-1 is a substrate of mitochondrial dehydrogenases and is converted to a colored dye called formazan in viable cells. Because the intensity of dye is proportional to the amount of enzyme, WST-1 reagent cell proliferation assay is widely used to measure the cell viability ([Ngamwongsatit et al., 2008]).
# [2] = test system: HEK293 cells; assay: WST-1 cytotoxicity / cell viability assay; assay type: cell-based, human
# Description: as §1, §2, §3
# [3] = WST-1 cytotoxicity / cell viability assay; assay type: cell-based, human; conditions: human, SH-SY5Y cells, log-probit on percentage mortality, read-out: LC50
# Description: as §1, §2
# (§4) It has also been used as a preservative for cosmetic products. In addition, it was reported that methylparaben is a chemical compound present in local anesthetic that can alter the function of the human nervous system ([Nathan and Sears, 1961]).
# [4] = test system: SH-SY5Y cells; assay: WST-1 cytotoxicity / cell viability assay; assay type: cell-based, human
# Description: as §1, §2, §4
# [5] = test system: CCNB1 (cyclin B1); assay: Real-time PCR, cyclin B1 mRNA expression in HEK293 cells; assay type: cell-based, human; conditions: HEK293, 48 h, MB 4.4 mM, EB 1.7 mM, VB 1.7 mM, ACTIN reference
# Description: (§5) HEK293 and SH-SY5Y cells were grown to 60–70% confluence in 6 well plates and the media were exchanged with the ones including the chemicals, MB, EB, or VB in the given concentrations. After 48 h incubation, the cells were washed with cold PBS once and scraped. The cells were washed again with cold PBS twice before extracting total RNA molecules using Qiagen RNeasy kit. cDNAs were constructed from 600 ng of the collected RNAs using Reverse Transcription System (Promega, Japan). cDNA was analyzed through real-time quantifying PCR using SYBR Green Realtime PCR Master Mix (Toyobo, Japan) according to the manufacturer's instructions (CFX96 Touch Real-time PCR System, Bio-Rad).
# (§6) Further, we prompted to assess whether the gene expression of cell cycle and stress regulators such as cyclins and HSP70 is affected by MB, EB, and VB. These chemicals were applied to the HEK293 or SH-SY5Y cells at the concentrations of 4.4 mM [0.06% MB, 0.05% (3.7 mM) for SH-SY5Y cells], 1.7 mM (0.025%, EB), and 1.7 mM (0.025%, VB), respectively, for 48 h before extracting the total RNAs from the cells. The concentrations were chosen based on the LC50 values, approximately a third of the values, that would not cause cell death but could influence the gene expression in the tested cells. mRNAs of HSP70, CCNB1 (cyclin B1), and CCND1 (cyclin D1) were quantified by real-time PCR with ACTIN as a reference gene. Cyclin B1 is a checkpoint regulator for S/G2 transition, whereas cyclin D1 is for G1 progression ([Baldin et al., 1993]; [Hwang et al., 1995]). […] The mRNA expression of HSP70, a stress-inducible gene ([Huang et al., 2001]), decreased in MB-, EB-, and VB-treated HEK293 cells, and VB-treated samples showing the least expression (Figure 4A). […] For SH-SY5Y cells, we also measured the mRNA expression of AChE, acetylcholinesterase gene ([Dvir et al., 2010]), because of the similar structure of these chemicals to methylparaben ([Nathan and Sears, 1961]) and of the fact that MB has been reported to have a repellent effect against some insect pests such as Bemisia tabaci (Gennadius) ([Mostafiz et al., 2018]).
# [6] = test system: HSP70; assay: Real-time PCR, HSP70 mRNA expression in HEK293 cells; assay type: cell-based, human; conditions: HEK293, 48 h, MB 4.4 mM, EB 1.7 mM, VB 1.7 mM, ACTIN reference
# Description: as §5, §6
# [7] = test system: HSP70, CCNB1 (cyclin B1), and CCND1 (cyclin D1); assay: Real-time PCR, HSP70, CCNB1 and CCND1 mRNA expression in SH-SY5Y cells; assay type: cell-based, human; conditions: 48 h, MB 3.7 mM, EB 1.7 mM, VB 1.7 mM
# Description: as §5, §6
# [8] = test system: AChE, acetylcholinesterase gene; assay: Real-time PCR, AChE mRNA expression in SH-SY5Y cells; assay type: cell-based, human; conditions: 48 h, MB 3.7 mM, EB 1.7 mM, VB 1.7 mM
# Description: as §5, §6
# [9] = WST-1 cytotoxicity / cell viability assay; assay type: cell-based, human; conditions: human, CACO2 cells; CACO2, WST assay, log-probit on percentage mortality; read-out: LC50
# Description: as §1, §2
# (§7) Ingested residual pesticides from agricultural foods may stay in the colon for a longer time than any other organs.
# [10] = test system: CACO2 cells; assay: WST-1 cytotoxicity / cell viability assay; assay type: cell-based, human; conditions: for reduction in CACO2 cells in the WST-1 assay: acetone-T20 solvent
# Description: as §1, §2, §7
# [11] = Crystal violet cell staining assay; assay type: cell-based; conditions: human, HEK293 cells, in agreement with WST-1, read-out: upper limit of MB concentration for HEK293 cell viability
# Description: For the crystal violet experiment, cells were split into a 96 well and MB was applied to each well as described above and then HEK293 cells were grown for 1–2 days and CACO2 cells for 4–5 days. Crystal violet staining method published by M. [Feoktistova et al., (2016)] was used without modifications. The resultant plate was taken picture of. In addition, the stained cells were dissolved in methanol and the intensity of color was measured at 595 nm (Tecan Sunrise, Switzerland).
# [12] = Visual observation of aggregates in cell culture media; assay type: physicochemical; conditions: MB higher than 5.5 mM (0.075%) applied to the media; persisted with T20
# Description: Therefore, we aimed to identify an upper limit of MB concentration between 0.1 and 11 mM (0.001% and 0.15%) where the growth of HEK293 cells was less affected. Seven MB concentrations, 0, 0.1, 0.7, 3.7, 5.5, 7.0, 11 mM (0%, 0.001%, 0.01%, 0.05%, 0.075%, 0.1%, and 0.15%), were applied to HEK293 cells and the WST-1 experiment was performed. […] This might be because of the hydrophobicity of MB which causes it to form aggregates facilitated by the aqueous condition in the cell culture media. […] The WST-1 data were similar to the results without T20, except for 5.5 mM MB. […] We attributed the increased sensitivity of MB concentration 5.5 mM (0.075%) in the acetone-T20 solvent to the synergistic cytotoxic effect in the presence of the detergent, T20 with MB or the enhanced solubility of MB.
# [13] = test system: CCND1 (cyclin D1); assay: Real-time PCR, cyclin D1 mRNA expression in HEK293 cells; assay type: cell-based, human; conditions: HEK293, 48 h, VB 1.7 mM, ACTIN reference
# Description: as §5
# Further, we prompted to assess whether the gene expression of cell cycle and stress regulators such as cyclins and HSP70 is affected by MB, EB, and VB. These chemicals were applied to the HEK293 or SH-SY5Y cells at the concentrations of 4.4 mM [0.06% MB, 0.05% (3.7 mM) for SH-SY5Y cells], 1.7 mM (0.025%, EB), and 1.7 mM (0.025%, VB), respectively, for 48 h before extracting the total RNAs from the cells. The concentrations were chosen based on the LC50 values, approximately a third of the values, that would not cause cell death but could influence the gene expression in the tested cells. mRNAs of HSP70, CCNB1 (cyclin B1), and CCND1 (cyclin D1) were quantified by real-time PCR with ACTIN as a reference gene. […]
# [14] = test system: HSP70; assay: Western blot, HSP70 protein level in HEK293 cells; assay type: cell-based, human; conditions: HEK293, VB 1.7 mM (250 ppm), α-Tubulin loading control
# Description: HEK293 cells grown in 6 well plates for Western blots and SDS polyacrylamide gel electrophoresis (SDS-PAGE) were washed with cold PBS twice and scraped in RIPA buffer (Cell Signaling, Cat. 9806, USA). Protein concentration in each sample was measured through Bradford assay using Bio-Rad Protein Assay Dye Reagent Concentrate (Bio-Rad #5000006) and spectrophotometry at 595 nm (Tecan Sunrise™ Absorbance Microplate Reader, Switzerland). From the measured protein concentration, a total of 15 μg of proteins per each sample were loaded on 7% SDS-PA gels, blotted onto nitrocellulous membrane, and probed for HSP70 and α-Tubulin using corresponding antibody (HSP70, Santa Cruz sc-32239; α-Tubulin, Santa Cruz sc-8035) in Western blot assay.
# Further, we prompted to assess whether the gene expression of cell cycle and stress regulators such as cyclins and HSP70 is affected by MB, EB, and VB. […] The concentrations were chosen based on the LC50 values, approximately a third of the values, that would not cause cell death but could influence the gene expression in the tested cells. mRNAs of HSP70, CCNB1 (cyclin B1), and CCND1 (cyclin D1) were quantified by real-time PCR with ACTIN as a reference gene. […]
# [15] = log-probit on percentage mortality
# [16] = log-probit on percentage mortality, read-out: LC50 (the source's name)
Compound,CC50 at 48 h [1] [mM],"LC50 [2, 15] [%]",CC50 at 48 h [3] [mM],"LC50 [4, 15] [%]",cyclin B1 mRNA expression compared with solvent control [5],HSP70 mRNA expression compared with solvent control [6],"mRNA expression of HSP70, CCNB1 and CCND1 [7]",AChE mRNA expression [8],CC50 at 48 h [9] [mM],"reduction in CACO2 cells in the WST-1 assay ([10]; CACO2, MB 3.7 mM (0.05%))","reduction in CACO2 cells in the WST-1 assay ([10]; CACO2, MB 7.3 mM (0.1%)) [%]","LC50 ([10]; CACO2, WST assay, log-probit on percentage mortality) [%]",viability [11] [%],aggregate formation in cell culture media [12],"relative toxicity among MB, EB and VB [2]","CC50 [2, 16] [mM]","relative toxicity among MB, EB and VB [4]","CC50 [4, 16] [mM]",cyclin D1 mRNA expression compared with solvent control [13],HSP70 protein level [14]
"CCOC(=O)c1ccccc1 [EB, ethyl benzoate]",6.9,0.104,7.3,0.11,rarely differentiated,decreased,did not display notable differential expressions,hardly any change,–,–,–,–,–,–,–,–,–,–,–,–
"COC(=O)c1ccccc1 [MB, Methyl benzoate]",13.2,0.18,11,0.15,rarely differentiated,decreased,did not display notable differential expressions,hardly any change,20.6,about 30%,> 90,0.28,≤ 0.05,formed silver-colored aggregates,–,–,–,–,–,–
"C=COC(=O)c1ccccc1 [VB, vinyl benzoate]",–,0.08,–,0.09,rarely differentiated,decreased,did not display notable differential expressions,mild increase,–,–,–,–,–,–,most toxic,5.4,most toxic,6.1,noticeable reduction,consistently decreased
